Data from PMC3537229 (European journal of pharmacology, 2012).
Read-outs that look alike come from different tables or passages of the source.

Legend:
[1] = system: mice; details: mice, 1, 3 or 10 mg/kg, i.p.; ref Robinson et al. (2012); cited from earlier work
[2] = target: T1, NET (Rattus norvegicus, UniProt Q63380); details: percentage of maximal release response; ref Baumann et al. (2012b); cited from earlier work
[3] = target: T2, SERT (Rattus norvegicus, UniProt P31652); details: percentage of maximal release response; ref Baumann et al. (2012b); cited from earlier work
T2 sequence (P31652 whole entry): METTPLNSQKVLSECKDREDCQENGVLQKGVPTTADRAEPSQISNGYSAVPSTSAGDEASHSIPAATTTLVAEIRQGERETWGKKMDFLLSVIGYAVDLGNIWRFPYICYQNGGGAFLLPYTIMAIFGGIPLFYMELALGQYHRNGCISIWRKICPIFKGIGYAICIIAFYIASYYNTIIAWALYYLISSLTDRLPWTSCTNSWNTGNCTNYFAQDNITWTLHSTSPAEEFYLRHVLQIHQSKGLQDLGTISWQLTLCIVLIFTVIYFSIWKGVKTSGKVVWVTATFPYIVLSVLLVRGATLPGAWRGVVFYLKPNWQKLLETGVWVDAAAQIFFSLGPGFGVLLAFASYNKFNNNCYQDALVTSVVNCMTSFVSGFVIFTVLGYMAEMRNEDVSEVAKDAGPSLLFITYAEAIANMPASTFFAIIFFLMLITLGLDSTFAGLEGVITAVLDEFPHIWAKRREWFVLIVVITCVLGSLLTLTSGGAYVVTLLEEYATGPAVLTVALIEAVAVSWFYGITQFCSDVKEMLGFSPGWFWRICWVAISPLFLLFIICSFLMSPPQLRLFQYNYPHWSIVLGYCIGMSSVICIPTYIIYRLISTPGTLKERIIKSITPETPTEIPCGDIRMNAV

[4] = target: T3, DAT (Rattus norvegicus, UniProt P23977); assay: Inhibition of [3H]dopamine uptake in rat brain synaptosomes; assay type: biochemical
T3 sequence (P23977 whole entry): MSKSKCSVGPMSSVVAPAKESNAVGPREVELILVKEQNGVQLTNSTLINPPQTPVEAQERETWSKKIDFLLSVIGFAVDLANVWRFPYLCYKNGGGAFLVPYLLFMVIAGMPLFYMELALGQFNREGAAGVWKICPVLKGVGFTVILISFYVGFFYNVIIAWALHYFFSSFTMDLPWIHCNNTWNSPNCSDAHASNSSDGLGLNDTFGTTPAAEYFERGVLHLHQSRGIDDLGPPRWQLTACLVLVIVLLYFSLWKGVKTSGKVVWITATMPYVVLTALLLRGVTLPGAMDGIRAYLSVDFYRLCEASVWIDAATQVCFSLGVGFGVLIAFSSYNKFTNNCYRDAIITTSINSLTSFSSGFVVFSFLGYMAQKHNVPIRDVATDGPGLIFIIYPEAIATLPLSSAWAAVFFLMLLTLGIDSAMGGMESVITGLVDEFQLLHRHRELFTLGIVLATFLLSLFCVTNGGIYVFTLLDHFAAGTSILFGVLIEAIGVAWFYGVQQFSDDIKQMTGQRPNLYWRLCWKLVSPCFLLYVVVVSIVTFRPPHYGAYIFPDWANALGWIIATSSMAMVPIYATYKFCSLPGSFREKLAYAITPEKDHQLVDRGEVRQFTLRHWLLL

[5] = target: T1, NET; assay: Inhibition of [3H]norepinephrine uptake in rat brain synaptosomes; assay type: biochemical
[6] = target: T2, SERT; assay: Inhibition of [3H]serotonin uptake in rat brain synaptosomes; assay type: biochemical
[7] = target: T3, DAT; assay: Release of [3H]MPP+ via DAT in rat brain synaptosomes; assay type: biochemical
[8] = target: T1, NET; assay: Release of [3H]MPP+ via NET in rat brain synaptosomes; assay type: biochemical
[9] = target: T2, SERT; assay: Release of [3H]serotonin via SERT in rat brain synaptosomes; assay type: biochemical
[10] = system: rats; details: cited from earlier work
[11] = target: T3, DAT; details: percentage of maximal release response; ref Baumann et al. (2012b); cited from earlier work
[12] = system: extracellular levels of dopamine and serotonin in rat nucleus accumbens; details: i.v. injection, 0.3 or 1.0 mg/kg; ref Baumann et al., 2012a; cited from earlier work
[13] = system: mice; details: ref Angoa-Perez et al., 2012, Lopez-Arnau et al., Marusich et al.; cited from earlier work
[14] = system: mice; details: 30 mg/kg, i.p.; ref Lisek et al., 2012; cited from earlier work
[15] = system: rats; details: 30 mg/kg, i.p.; ref Lisek et al., 2012; cited from earlier work
[16] = ref Kehr et al., 2011; cited from earlier work

T1 sequence (Q63380 1-617): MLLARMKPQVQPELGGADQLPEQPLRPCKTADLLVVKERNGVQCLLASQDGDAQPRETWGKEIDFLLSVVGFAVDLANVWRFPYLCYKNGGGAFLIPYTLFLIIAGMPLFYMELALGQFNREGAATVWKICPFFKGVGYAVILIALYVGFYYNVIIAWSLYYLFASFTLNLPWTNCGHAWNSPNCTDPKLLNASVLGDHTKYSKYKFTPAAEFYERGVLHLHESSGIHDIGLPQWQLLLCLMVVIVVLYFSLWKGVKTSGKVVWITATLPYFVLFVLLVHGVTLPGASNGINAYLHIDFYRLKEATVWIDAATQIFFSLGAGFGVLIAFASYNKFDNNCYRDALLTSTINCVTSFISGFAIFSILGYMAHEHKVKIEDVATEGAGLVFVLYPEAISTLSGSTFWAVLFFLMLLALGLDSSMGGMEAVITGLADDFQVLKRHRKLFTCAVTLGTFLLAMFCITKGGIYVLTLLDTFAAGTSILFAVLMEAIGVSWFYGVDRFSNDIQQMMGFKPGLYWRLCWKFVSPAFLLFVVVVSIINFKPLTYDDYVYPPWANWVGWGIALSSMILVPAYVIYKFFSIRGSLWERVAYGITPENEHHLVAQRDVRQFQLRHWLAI

COC(=O)[C@H]1[C@@H](OC(=O)c2ccccc2)C[C@@H]2CC[C@H]1N2C [Cocaine]
Brain stimulation reward thresholds [1]: this effect is mimicked by identical doses of cocaine

CC(N)Cc1ccccc1 (centres unmarked) [Amphetamine]
NET release Emax % [2]: 92 ± 1%
SERT release Emax % [3]: 97 ± 2%

CNC(C)Cc1ccc2c(c1)OCO2 (centres unmarked) [MDMA, 3,4-methylenedioxymethamphetamine]
IC50 [4]: 1010 ± 39 nM
IC50 [5]: 450 ± 30 nM
IC50 [6]: 125 ± 11 nM
EC50 [7]: 42 ± 2 nM
Emax ([7]; read-out: DAT release Emax %): 100%
EC50 [8]: 53 ± 7 nM
Emax ([8]; read-out: NET release Emax %): 95%
EC50 [9]: 39 ± 5 nM
Emax ([9]; read-out: SERT release Emax %): 103%

CCCC(C(=O)c1ccc2c(c1)OCO2)N1CCCC1 (centres unmarked) [MDPV, 3,4-methylenedioxypyrovalerone]
Uptake blocking potency at DAT compared to cocaine (fold more potent) ([4]; more potent than cocaine): 50 fold
Uptake blocking potency at NET compared to cocaine (fold more potent) ([5]; more potent than cocaine): 10 fold
Uptake blocking potency at SERT compared to cocaine (fold less potent) ([6]; less potent than cocaine): 10 fold
Self-administration by rats ([10]; i.v., 0.05, 0.1 or 0.2 mg/kg, ref Watterson et al., 2012): is readily self-administered by rats
Drug-taking behavior with extended access ([10]; rats allowed extended access to the drug, ref Watterson et al., 2012): escalation of drug-taking behavior is observed

CNC(C)C(=O)c1ccc(C)cc1 (centres unmarked) [Mephedrone, 4-methylmethcathinone]
DAT release Emax % [11]: 102 ± 2%
NET release Emax % [2]: 99 ± 4%
SERT release Emax % [3]: 101 ± 1%
Extracellular levels of dopamine and serotonin in rat nucleus accumbens [12]: increases extracellular levels of dopamine and serotonin
Locomotor stimulant effects in mice [13]: produces locomotor stimulant effects
Place preference in mice [14]: engenders a positive place preference
Place preference in rats [15]: engenders a positive place preference
Brain stimulation reward thresholds [1]: lowers brain stimulation reward thresholds
Self-administration by rats ([10]; i.v., 0.24 mg/infusion, ref Hadlock et al. (2011)): is self-administered by rats
Rate of clearance compared to MDMA [16]: much faster rate of clearance when compared to MDMA

CNC(C)C(=O)c1ccc2c(c1)OCO2 (centres unmarked) [Methylone, 3,4-methylenedioxymethcathinone]
SERT release Emax % [3]: 98 ± 2%
Extracellular levels of dopamine and serotonin in rat nucleus accumbens [12]: increases extracellular levels of dopamine and serotonin
